Measurements published in US9193740B2, “Bismacrocyclic compounds as hepatitis C virus inhibitors” (Enanta Pharmaceuticals, Inc., priority 2009, dated 2015).
pEC50: −log10 of the molar value.

Tested on: HCV 1b genotype replicon
Experiment: Cell-based HCV replicon assay (qRT-PCR or luciferase), genotype 1b
Settings: Hepatitis C virus
Protocol: Cell-Based Replicon Assay
The anti-HCV activity of the compounds is determined using the cell-based replicon assay and the HCV replication assay described in US Publication No: 2010/0003214, incorporated herein by reference in its entirety.
HCV Replicon Assay—Luciferase
Since clinical drug resistance often develops in viral infections following single agent therapies, there is a need to assess the additive, antagonistic, or synergistic properties of combination therapies. We use the HCV replicon system to assess the potential use of the compound of the present invention or in combination therapies with Interferon alpha, cyclosporine analogs and inhibitors targeting other HCV proteins. The acute effects of a single or combinations of drugs are studied in the “Huh-luc/neo-ET” replicon with each chemical agent titrated in an X or Y direction in a 6 point two-fold dilution curve centered around the EC50 of each drug. […] Using this method, the combination data are analyzed for antagonistic, additive, or synergistic combination effects across the entire combination surface created by the diluted compounds in combination. […]

Compound | pEC50
O=C1N[C@H]2CCCCC/C=C\[C@@H]3C[C@@]3(C(=O)NS(=O)(=O)C3CC3)NC(=O)[C@@H]3C[C@H](CN3C2=O)Oc2nc3ccccc3nc2-c2cccc(c2)OCC(F)(F)CO1 [Example 2] | > 9.00
CC1(C)CC/C=C/C(F)(F)c2nc3ccccc3nc2O[C@@H]2C[C@H]3C(=O)N[C@]4(C(=O)NS(=O)(=O)C5CC5)C[C@H]4/C=C\CCCCC[C@H](NC(=O)OC1)C(=O)N3C2 [Example 8] | > 9.00
